This is an account of results in patent US20260207514A1, “Clofazimine Mini-Tablets for Treatment of Tuberculosis in Pediatrics” (Via Therapeutics, LLC, priority 2022, published 2026).

In brackets after ≈: the same amount, converted by molar mass. Where two headings read alike, the source gives them in different places.

The nature of one data set: physchem. The data set is classed as physicochemical. The settings on record: thermodynamic from solid, read-out: CFZ saturation solubility.
Data set [1] is described as follows: Stress testing of micronized CFZ with excipient blends (compatibility, HPLC assay and related substances). Format: physicochemical. As for the experimental part: Clofazimine degradation was assessed using the high pressure liquid chromatography (HPLC) method published in the United States Pharmacopeia monograph for the drug (U.S.P., 2021) The mobile phase consisted of a 65:35 mixture of acetonitrile and an aqueous buffer consisting of 4.5 g/L sodium dodecyl sulfate, 1.7 g/L tetrabutylammonium hydrogen sulfate and 21.8 g/L Na2HPO4 adjusted to pH 3.0. Flow rate was 1.0 mL/min and infection volume was 20 μL. A LiChromspher® RP-8 100 column (250×4.6, 5 μm) (Millipore Sigma) was used. Measurements were performed using an Agilent 1100 HPLC with diode array detector set at 280 nm. […] Hydrophobic PTFE 0.22 μm filters were used for sample filtration prior to analysis.
Stress testing of micronized CFZ in combination with commercially available tableting excipient blends was performed to establish potential mechanisms of drug degradation and streamline excipient selection for mini-tablet preparation. Two different blends were assessed: Prosolv® EasyTab SP (JRS Pharma) and Ludipress® (BASF).
Additionally, Eudragit® E PO was assessed, as a potential candidate for functional coating of the mini-tablets to prevent CFZ release in the saliva and subsequent staining of the mouth. Binary mixtures of micronized CFZ and excipient blends and micronized CFZ and Eudragit E PO were prepared at 1:1 weight ratios. Blends of CFZ with Prosolv EasyTab SP, Ludipress, or Eudragit E PO were left open or in closed HPDE vials and stored for 18 days at 70° C./20% relative humidity (RH) or 70° C./75% RH, which was the thermal equivalent of 6 months of storage. As a control, micronized CFZ alone and each excipient blend alone were stored open at each condition.
HPLC analysis was performed on day 0 for CFZ alone and CFZ with each excipient, as well as on day 18 for the same samples at each temperature and humidity condition. Assay values (% recovery) for all samples was determined by comparing peak area to a reference standard and correcting for sample water content measured by Karl Fischer titration method, and related substances were reported by relative retention time (RRT) to the reference CFZ peak.

The nature of data set [2]: Particle size distribution of milled powder by laser diffraction. The data set is classed as physicochemical. The settings on record: jet-milled powder, RODOS 4 bar. On the procedure: Clofazimine (CFZ) (Midas Pharma GmbH) was micronized by Lonza Group AG using a 10-inch spiral jet mill at 3 kg/hr feed rate and 100 psi grinding pressure. Particle size distribution of the milled powder was determined using a laser diffractor (HELOS, Sympatec GmbH) with RODOS dry powder disperser set at 4 bar dispersion pressure and 20% rotation.

The conditions of data set [3]: 1 mg/kg per day, average 105.6 days, average age 5.8 years; cited from earlier work.

`CC(C)/N=c1\cc2n(-c3ccc(Cl)cc3)c3ccccc3nc-2cc1Nc1ccc(Cl)cc1` [CFZ, clofazimine]: the solubility worked out at 0.092 ± 0.004 µg/mL (≈ 0.194 µM) in “physchem” (fassgf or other biorelevant, in FaSSGF); 20.1 ± 1.86 µg/mL (≈ 42.5 µM) in the data set “physchem” (fassgf or other biorelevant, in FeSSGF); 14.9 ± 1.5 µg/mL (≈ 31.5 µM) in “physchem” (fessif, in FeSSIF). Also, the “Impurity (% Area) RRT 0.82” value is 0.113 % Area in data set [1] (70 C./20% RH, Open, 18 days); 0.096 % Area in data set [1] (70 C./75% RH, Open, 18 days); 0.096 % Area in data set [1] (Initial (day 0)). In addition, the “Impurity (% Area) RRT 0.88” value in data set [1] (70 C./20% RH, Open, 18 days) is 0.117 % Area; in data set [1] (70 C./75% RH, Open, 18 days), 0.126 % Area; in data set [1] (Initial (day 0)), 0.109 % Area. Moreover, the “Impurity (% Area) RRT 0.94” value in data set [1] (70 C./75% RH, Open, 18 days) was less than 0.05 % Area. Moreover, in data set [2], the X10 diameter is recorded as 0.66 μm. The compound further displayed an X50 diameter in data set [2] of 1.47 μm. In data set [2], this compound registered an X90 diameter of 3.50 μm. In addition, the adverse effects result in data set [3] was “limited to skin discoloration and gastrointestinal symptoms”.
